Laboratory results taken from paper PMC12844998, “Bridging the Knowledge Gap in Harmaline’s Pharmacological Properties: A Focus on Thermodynamics and Kinetics” (Pharmaceutics, 2025).
“And” between values parts separate entries of the source, which are not always exact repeats. Equal values may be shown once. Read-outs that look alike come from different tables or passages of the source.

Assays:
[1] = Equilibrium distribution coefficients in organic solvent/pH 7.4 systems, shake-flask method; type: physicochemical; details: for logD / logD at 24 h: read-out: log DappOctOH/pH7.4 (logD) (converted); for DappHex/pH7.4 ·10^2: value given as D×10^2
Procedure: The equilibrium distribution coefficients of HML were determined in the OctOH/pH 7.4 and Hex/pH 7.4 systems by the shake-flask method over a wide temperature range of 293.15–313.15 K. The distribution coefficient in the IPM/pH 7.4 system was obtained at 310.15 K. Before the experiment, the aqueous and organic phases were mutually pre-saturated by vigorous shaking for 24 h, equilibrated, and then carefully separated. The stock HML solutions were prepared in OctOH for the OctOH/pH 7.4 system and in pH 7.4 for both the Hex/pH 7.4 and IPM/pH 7.4 systems. The volumes of the organic and aqueous phases were selected according to the HML solubility in each solvent. The glass vials containing the two-phase system were equilibrated at constant temperature for 24 h. After this, the vials were allowed to stand for not less than 4 h, and the phases were carefully separated. The concentration of HML in each phase was measured using a UV-VIS spectrophotometer (Cary-50 Varian, Palo Alto, CA, USA; Software Version 3.00 (339)). Each experiment was carried out in three or more replicates. The standard deviation ranged from 2% to 4% of the mean. The distribution coefficients were calculated by Equation (1):(1) DappOrg/pH7.4=C2Org/pH7.4⋅V^pH7.4/Org/C2pH7.4/Org⋅V^Org/pH7.4 where DappOrg/pH7.4 is the distribution coefficient calculated using the compound concentrations in molar units, C2Org/pH7.4 and C2pH7.4/Org are the molar concentrations of the drug in the mutually saturated organic and aqueous phases, respectively, V^pH7.4/Org and V^Org/pH7.4 are the volumes of the mutually saturated buffer and organic phases, respectively. The ΔlogD parameters that characterize the drug’s hydrogen-bonding potential and reflect the impact of specific interactions on partition processes were calculated as follows:(2) ΔlogD^Oct/Hex=logDappOct/pH7.4−logDappHex/pH7.4 (3) ΔlogD^IPM/Hex=logDappIPM/pH7.4−logDappHex/pH7.4

Caco-2 monolayers = assay: Literature permeability across Caco-2 monolayers; type: in vitro ADME; details: literature Caco-2 (ref 12) vs PP Papp
[2] = Transfer thermodynamics from van't Hoff plots of distribution coefficients; type: physicochemical; details: 298.15 K
Excerpt: The calculation of the thermodynamic parameters for the solubility and distribution processes was based on component concentrations expressed in terms of mole fractions. The standard calculation procedure and the respective equations are presented in the Supplementary Materials (Section S4).

[3] = undefined temperature, cited from earlier work

With `COc1ccc2c3c([nH]c2c1)C(C)=NCC3` [HML, Harmaline] the “log partition 1-octanol / buffer pH 7.4” value (shake-flask; pH 7.4, 293.15) was 0.973 log10, the “log partition n-hexane / buffer pH 7.4” value (shake-flask; pH 7.4, 293.15) was −1.929 log10 and the “log partition 1-octanol / buffer pH 7.4” value (shake-flask; pH 7.4, 298.15) was 1.016 log10. For the same molecule, the “log partition n-hexane / buffer pH 7.4” value (shake-flask; pH 7.4, 298.15) was −1.899 log10, the “log partition 1-octanol / buffer pH 7.4” value (shake-flask; pH 7.4, 303.15) was 1.066 log10 and the “log partition n-hexane / buffer pH 7.4” value (shake-flask; pH 7.4, 303.15) was −1.833 log10. For the same molecule, the “log partition 1-octanol / buffer pH 7.4” value (shake-flask; pH 7.4, 308.15) was 1.165 log10, the “log partition n-hexane / buffer pH 7.4” value (shake-flask; pH 7.4, 308.15) was −1.765 log10 and the “log partition 1-octanol / buffer pH 7.4” value (shake-flask; pH 7.4, 310.15) was 1.290 log10. The “log partition isopropyl myristate / buffer pH 7.4” value (shake-flask; pH 7.4, 310.15) was −0.602 log10, the “log partition n-hexane / buffer pH 7.4” value (shake-flask; pH 7.4, 310.15) was −1.658 log10 and the “log partition 1-octanol / buffer pH 7.4” value (shake-flask; pH 7.4, 313.15) was 1.345 log10. For the same molecule, the “log partition n-hexane / buffer pH 7.4” value (shake-flask; pH 7.4, 313.15) was −1.605 log10, the logD ([1]; 1-octanol (OctOH)/buffer pH 7.4, pH 7.4, OctOH/pH 7.4, 310.15 K) was 1.29 and the logD ([1]; 1-octanol (OctOH)/buffer pH 7.4, pH 7.4, OctOH/pH 7.4, 313.15 K) was 1.34. For the same molecule, the “decrease of distribution coefficient from OctOH/pH 7.4 to IPM/pH 7.4 system” value ([1]; 310.15 K) was 78 fold, the “DappHex/pH7.4 ·10^2” value ([1]; Hex/pH 7.4, 293.15 K) was 1.178 ± 0.024 and the “DappHex/pH7.4 ·10^2” value ([1]; Hex/pH 7.4, 303.15 K) was 1.470 ± 0.037. For the same molecule, the “DappHex/pH7.4 ·10^2” value ([1]; Hex/pH 7.4, 308.15 K) was 1.718 ± 0.035, the DappHex/pH7.4 ([1]; Hex/pH 7.4, 310.15 K, unscaled value in text) was 0.022 and the “DappHex/pH7.4 ·10^2” value ([1]; Hex/pH 7.4, 310.15 K) was 2.197 ± 0.044. For the same molecule, the “DappHex/pH7.4 ·10^2” value ([1]; Hex/pH 7.4, 313.15 K) was 2.483 ± 0.050, the DappIPM/pH7.4 ([1]; IPM/pH 7.4, 310.15 K) was 0.25 and 0.250 ± 0.010 and the logD at 24 h ([1]; OctOH (octanol)/buffer pH 7.4, pH 7.4, OctOH/pH 7.4, 293.15 K) was 0.973. For the same molecule, the logD at 24 h ([1]; OctOH (octanol)/buffer pH 7.4, pH 7.4, OctOH/pH 7.4, 298.15 K) was 1.02, the logD at 24 h ([1]; OctOH (octanol)/buffer pH 7.4, pH 7.4, OctOH/pH 7.4, 303.15 K) was 1.07 and the logD at 24 h ([1]; OctOH (octanol)/buffer pH 7.4, pH 7.4, OctOH/pH 7.4, 308.15 K) was 1.17. It also gave a DappOctOH/pH7.4 ([1]; OctOH/pH 7.4, 293.15 K) of 9.399 ± 0.101, a DappOctOH/pH7.4 ([1]; OctOH/pH 7.4, 298.15 K) of 10.376 ± 0.208 and a DappOctOH/pH7.4 ([1]; OctOH/pH 7.4, 303.15 K) of 11.653 ± 0.233. For the same molecule, the DappOctOH/pH7.4 ([1]; OctOH/pH 7.4, 308.15 K) was 14.632 ± 0.293, the DappOctOH/pH7.4 ([1]; OctOH/pH 7.4, 310.15 K) was 19.492 and 19.49 and 19.492 ± 0.389 and the DappOctOH/pH7.4 ([1]; OctOH/pH 7.4, 313.15 K) was 22.138 ± 0.443. For the same molecule, the “maximum difference between Caco-2 model permeability and PermeaPad result” value (Caco-2 monolayers) was at most 1.4 fold, the TΔStr0 ([2]; Hex→OctOH) was 21.4±1.9 kJꞏmol-1 and the “distribution coefficient Dx (mole fraction scale)” value ([2]; Hex→OctOH) was 993.14. The “enthalpy contribution to transfer (ΔHtr0 share)” value ([2]; Hex→OctOH) was 16.7%, the “entropy contribution to transfer (TΔStr0 share)” value ([2]; Hex→OctOH) was 83.3% and the ΔGtr0 ([2]; Hex→OctOH) was -17.1±0.3 kJꞏmol-1 and −17.1 kJꞏmol-1. For the same molecule, the ΔHtr0 ([2]; Hex→OctOH) was 4.3±0.3 kJꞏmol-1, the TΔStr0 ([2]; pH 7.4→Hex) was 23.4±1.0 kJꞏmol-1 and the “enthalpy contribution to transfer (ΔHtr0 share)” value ([2]; pH 7.4→Hex) was 55.3%. For the same molecule, the “entropy contribution to transfer (TΔStr0 share)” value ([2]; pH 7.4→Hex) was 44.7%, the ΔHtr0 ([2]; pH 7.4→Hex) was 28.9±0.7 kJꞏmol-1 and the TΔStr0 ([2]; pH 7.4→OctOH) was 44.4±1.3 kJꞏmol-1. For the same molecule, the “distribution coefficient Dx (mole fraction scale)” value ([2]; pH 7.4→OctOH) was 103.10, the “enthalpy contribution to transfer (ΔHtr0 share)” value ([2]; pH 7.4→OctOH) was 42.6% and the “entropy contribution to transfer (TΔStr0 share)” value ([2]; pH 7.4→OctOH) was 57.4%. For the same molecule, the ΔGtr0 ([2]; pH 7.4→OctOH) was -11.5±0.2 kJꞏmol-1 and −11.5 kJꞏmol-1, the ΔHtr0 ([2]; pH 7.4→OctOH) was 32.9±0.3 kJꞏmol-1 and the “distribution coefficient n-heptane/aqueous (pH 7.4)” value ([3]; ref 19) was 0.05. The “distribution coefficient n-heptane/aqueous (pH 7.4)” value ([3]; ref 20) was 0.11.
